Test results published in patent US20250009730A1 (priority 2021, published 2025).
Structures can show the parent of a compound that is named as a salt. Where two headings read alike, the source gives them in different places. Values belong to the compound of their own block, whether it stands above or below them.

Columns and labels:
[1] = target: T1, NR1/NR2B ionotropic receptors encoded by the human GRIN1/GRIN2B genes, expressed in HEK293 cells (Homo sapiens, UniProt Q05586+Q13224); assay: Syncropatch automated patch clamp on NR1/NR2B receptors in HEK293 cells, agonist mode; assay type: cell-based; details: for EC50 / NR1/NR2B PCA agonist EMAX: plus 50 μM glycine; for NR1/NR2B PCA agonist EMAX: relative to current produced by 100 μM glutamate (EMAX set as 100%)
T1 sequence (Q13224 27-1484, other chains not shown): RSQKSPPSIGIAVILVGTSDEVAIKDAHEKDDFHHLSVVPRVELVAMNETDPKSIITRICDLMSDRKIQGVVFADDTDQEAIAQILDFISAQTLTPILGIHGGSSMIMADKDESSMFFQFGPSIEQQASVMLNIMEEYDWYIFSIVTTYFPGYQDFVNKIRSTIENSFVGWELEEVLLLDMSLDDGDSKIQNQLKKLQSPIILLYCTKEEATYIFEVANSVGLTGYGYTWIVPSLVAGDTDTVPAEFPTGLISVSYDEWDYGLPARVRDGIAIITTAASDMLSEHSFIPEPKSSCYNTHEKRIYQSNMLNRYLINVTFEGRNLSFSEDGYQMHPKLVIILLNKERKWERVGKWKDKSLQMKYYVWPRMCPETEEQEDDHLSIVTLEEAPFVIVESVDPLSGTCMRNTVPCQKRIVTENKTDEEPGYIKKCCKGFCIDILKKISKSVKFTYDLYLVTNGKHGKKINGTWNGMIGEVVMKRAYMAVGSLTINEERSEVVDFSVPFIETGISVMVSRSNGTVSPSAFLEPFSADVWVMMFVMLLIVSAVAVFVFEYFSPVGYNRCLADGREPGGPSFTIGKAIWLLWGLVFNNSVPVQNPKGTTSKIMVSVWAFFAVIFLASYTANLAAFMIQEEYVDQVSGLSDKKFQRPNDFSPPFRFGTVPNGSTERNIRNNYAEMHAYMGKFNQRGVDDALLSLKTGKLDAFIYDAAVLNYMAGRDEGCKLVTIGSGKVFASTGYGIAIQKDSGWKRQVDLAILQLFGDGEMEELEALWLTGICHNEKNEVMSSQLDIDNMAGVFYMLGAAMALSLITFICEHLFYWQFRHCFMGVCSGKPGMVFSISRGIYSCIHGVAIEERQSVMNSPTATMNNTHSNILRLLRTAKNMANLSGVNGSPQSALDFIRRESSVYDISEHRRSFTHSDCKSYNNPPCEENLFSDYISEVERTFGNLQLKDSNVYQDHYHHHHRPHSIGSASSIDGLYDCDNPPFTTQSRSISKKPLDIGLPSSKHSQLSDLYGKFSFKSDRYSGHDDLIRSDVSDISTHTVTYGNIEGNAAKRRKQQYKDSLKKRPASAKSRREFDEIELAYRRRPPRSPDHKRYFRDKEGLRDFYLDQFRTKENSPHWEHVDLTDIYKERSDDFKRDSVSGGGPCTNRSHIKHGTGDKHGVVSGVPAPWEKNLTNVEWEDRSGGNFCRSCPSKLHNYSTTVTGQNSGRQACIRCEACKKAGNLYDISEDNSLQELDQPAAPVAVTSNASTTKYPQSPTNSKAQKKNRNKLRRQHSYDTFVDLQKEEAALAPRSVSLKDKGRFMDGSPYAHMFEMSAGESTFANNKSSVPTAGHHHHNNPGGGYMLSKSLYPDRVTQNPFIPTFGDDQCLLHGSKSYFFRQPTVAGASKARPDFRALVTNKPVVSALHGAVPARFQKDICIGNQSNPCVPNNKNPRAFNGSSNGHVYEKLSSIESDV
Procedure: (§1) The following patch clamp study investigates these effects on NR1/NR2B ionotropic receptors encoded by the human GRIN1/GRIN2B genes, expressed in HEK293 cells. Compounds were evaluated for functional effects on these ion channel receptors.
(§2) The assay was carried out using an HTS electrophysiology-based approach with the Syncropatch 384pe automated patch clamp system (Nanion), while using HEK293 cells that have been transfected with human GRIN1/GRIN2B genes to express NR1/NR2B ionotropic receptors
(§3) HEK293 cells were transfected with the appropriate ion channel or receptor cDNA(s) encoding NR1 and NR2B. Stable transfectants were selected using the G418 and Zeocin-resistance genes incorporated into the expression plasmid. Selection pressure was maintained with G418 and Zeocin in the culture medium. Cells were cultured in Dulbecco's Modified Eagle Medium/Nutrient Mixture F-12 (D-MEM/F-12) supplemented with 10% fetal bovine serum, 100 U/ml penicillin G sodium, 100 ug/mL streptomycin sulfate, 100 ug/mL Zeocin, 5 ug/mL blasticidin and 500 ug/mL G418.
(§4) Before testing, cells in culture dishes were washed twice with DPBS solution. Immediately before testing, the cells were washed in HB-PS containing 10 mM CaCl2 to improve sealing.
(§5) Compounds were evaluated in 8-point concentration-response format (4 replicate wells/concentration). The compound formulations were loaded in e.g. a 384-well compound plate and placed in the Syncropatch plate well.
(§6) The agonist positive control (L-glutamate) was applied at eight (8) concentrations (0.03-100 μM; n=4, where n=the number of replicates) together with 50 μM glycine.
(§7) 2× concentration of test compounds and antagonist control was pre-applied 2 minutes before application of L-glutamate/glycine mixed with 1× concentration of test compound. Glutamate and glycine was applied to naive cells (n=4, where n=the number of replicate wells/concentration) via a multi-channel pipettor.
(§8) • a) Intracellular solution (mM): 50 mM CsCl, 90 mM CsF, 2 mM MgCl2, 5 mM EGTA, 10 mM HEPES. Adjust to pH 7.2 with CsOH. This solution was prepared in batches and stored refrigerated.
(§9) • a) Extracellular buffer was loaded into the multi holes plate wells (40 μL per well).
(§10) Activation was calculated in two ways based on the following measurements: • 1. peak current amplitudes, and • 2. current amplitude 4-5 seconds after agonist addition.
(§11) Data acquisition was performed via the […] and data was analyzed using Microsoft Excel™ (Microsoft™ Corp., Redmond, WA). Concentration-response data was filled to a Hill equation of the following form: […]
(§12) where Base is the response in the absence of test article (vehicle treatment), Max is the maximum response at high concentrations, xhalf is the EC50, or IC50, the concentration of test compound producing either half-maximal activation or inhibition, and rate is the Hill coefficient. Nonlinear least squares fits were made assuming a simple binding model. If appropriate, fits were weighted by the standard deviation. No assumptions about the fit parameters were made; the fit parameters were determined by algorithm. Raw reduced data was analyzed using Microsoft Excel Office 365 ProPlus (Microsoft™ Corp., Redmond, WA) and XLfit (Excel addon, Copyright© IDBS 2016).
as §1
HEK293 cells were transfected with the appropriate ion channel or receptor cDNA(s) encoding NR1 and NR2B. Stable transfectants were selected using the G418 and Zeocin-resistance genes incorporated into the expression plasmid. Selection pressure was maintained with G418 and Zeocin in the culture medium.

[2] = target: T1, NR1/NR2B ionotropic receptors encoded by the human GRIN1/GRIN2B genes, expressed in HEK293 cells; assay: Syncropatch automated patch clamp on NR1/NR2B receptors in HEK293 cells, antagonist mode (co-applied with 2 μM glutamate and 50 μM glycine); assay type: cell-based; details: for inhibits glutamate and glycine activation of NR1/NR2B receptors in vitro: PCA and SSC measurements, conclusion in words; for NR1/NR2B PCA antagonist HillSlope: co-applied with 2 μM glutamate and 50 μM glycine
Procedure: as §1, §2, §3, §4, §5, §6, §7, §8, §9, §10, §11, §12
Antagonist activity of test articles was examined after stimulation of receptors with 2 μM glutamate and 50 μM glycine in the presence of increasing concentrations of test articles. Two measurements were performed, first was a peak current amplitude and second was a steady state current between 4th and 6th seconds following agonist application.
as §1
HEK293 cells were transfected with the appropriate ion channel or receptor cDNA(s) encoding NR1 and NR2B.

[3] = system: cortical damage in a model of permanent focal ischemia; details: cited from earlier work
[4] = target: NR1C and NR2B receptors over NR1C+NR2A receptors (Homo sapiens, UniProt Q05586+Q13224); details: cited from earlier work
Sequence of NR1C and NR2B receptors over NR1C+NR2A receptors (Q13224 27-1484, other chains not shown): as above

[5] = steady state current amplitude (SSC) table

SMILES: N[C@@H](CCC(=O)O)C(=O)[O-].O.[Na+] [Glutamate, L-Glutamic acid monosodium salt monohydrate]
- NR1/NR2B PCA agonist HillSlope ([1]; peak current amplitude (PCA)): −0.86
- EC50 ([1]; peak current amplitude (PCA)): 3.03 µM
- NR1/NR2B PCA agonist EMAX ([1]; peak current amplitude (PCA)): 100.00%
- NR1/NR2B PCA agonist HillSlope [1, 5]: −0.95
- EC50 ([1]; steady state current amplitude (SSC) table, read-out: NR1/NR2B PCA agonist EC50): 0.82 µM
- NR1/NR2B PCA agonist EMAX [1, 5]: 100.00%

SMILES: CC(C(O)c1ccc(O)cc1)N1CCC(Cc2ccccc2)CC1.O=C(O)c1ccccc1 (centres unmarked) [Ifenprodil benzoate]
- inhibits glutamate and glycine activation of NR1/NR2B receptors in vitro [2]: comparable to ifenprodil tartrate
- NR1/NR2B PCA antagonist HillSlope ([2]; peak current amplitude (PCA)): 1.39
- NR1/NR2B PCA antagonist HillSlope [2, 5]: 1.25

SMILES: CC(C(O)c1ccc(O)cc1)N1CCC(Cc2ccccc2)CC1 (centres unmarked) [Ifenprodil fumarate]
- NR1/NR2B PCA antagonist HillSlope ([2]; peak current amplitude (PCA), listed as fumarate): 0.79
- NR1/NR2B PCA antagonist HillSlope ([2]; steady state current amplitude (SSC) table, listed as fumarate): 0.61

SMILES: CC(C(O)c1ccc(O)cc1)N1CCC(Cc2ccccc2)CC1 (centres unmarked) [Ifenprodil nicotinate]
- NR1/NR2B PCA antagonist HillSlope ([2]; peak current amplitude (PCA), listed as nicotinate): 0.71
- NR1/NR2B PCA antagonist HillSlope ([2]; steady state current amplitude (SSC) table, listed as nicotinate): 0.71

- inhibits glutamate and glycine activation of NR1/NR2B receptors in vitro [2]: comparable to ifenprodil tartrate
- NR1/NR2B PCA antagonist HillSlope ([2]; peak current amplitude (PCA)): 0.79
- NR1/NR2B PCA antagonist HillSlope [2, 5]: 0.86
SMILES: C[C@@H]([C@H](O)c1ccc(O)cc1)N1CCC(Cc2ccccc2)CC1 [Ifenprodil oleate]

SMILES: CC(C(O)c1ccc(O)cc1)N1CCC(Cc2ccccc2)CC1 (centres unmarked) [Ifenprodil pamoate]
- inhibits glutamate and glycine activation of NR1/NR2B receptors in vitro [2]: comparable to ifenprodil tartrate
- NR1/NR2B PCA antagonist HillSlope ([2]; peak current amplitude (PCA), listed as pamoate): 1.59
- NR1/NR2B PCA antagonist HillSlope ([2]; steady state current amplitude (SSC) table, listed as pamoate): 0.77

- NR1/NR2B PCA antagonist HillSlope ([2]; peak current amplitude (PCA)): 1.12
- NR1/NR2B PCA antagonist HillSlope [2, 5]: 1.08
SMILES: CC12CC3CC(C)(C1)CC(N)(C3)C2 [Memantine, memantine chloride, reference compound]

SMILES: Cc1ccc(CC2(O)CCN(CCOc3ccc(O)cc3)CC2)cc1 [Ro 63-1908]
- neuroprotective effect against cortical damage [3]: dose-related neuroprotective effect
- selectivity for the NR1C and NR2B receptors over NR1C+NR2A receptors [4]: 20,000 fold
